Earlier results, collected in patent US9302023B2, “Aldehyde gas deodorant and method for producing same” (TOAGOSEI CO., LTD., priority 2012, dated 2016).
Where two headings read alike, the source gives them in different places.

Conditions: stated as known, unsupported substance

Structure (SMILES)	Mutagenicity of the substance itself	Mutagenicity of the substance itself (listed as Hydrazine)
NN [hydrazine]	positive	highly positive
NNC(=O)CCCCC(=O)NN [adipic dihydrazide]	negative	–
NNC(=O)C(=O)NN [oxalic dihydrazide]	negative	–
NN [hydrated hydrazine]	strongly positive	–
NNC(=O)NN [carbohydrazide]	negative	–
NNC(=O)CCC(=O)NN [succinic dihydrazide]	weakly positive	–
